Measured values: publication PMC5569447 (Iranian Journal of Basic Medical Sciences, 2017)
Peptide text beside a SMILES is read from it.

test system: Mtb strain H37Rv ATCC 27294; settings: 24 h

| SMILES | MABA MIC |
| --- | --- |
| N=C(N)NCCC[C@H](NC(=O)[C@@H]1CCCN1)C(=O)N1CCC[C@H]1C(=O)O [PRP] (H-Pro-Arg-Pro-OH) | >800 µM |
| N=C(N)NCCC[C@H](NC(=O)[C@@H]1CCCN1C(=O)[C@@H](N)CO)C(=O)O [SPR] (H-Ser-Pro-Arg-OH) | >800 µM |
| N=C(N)NCCC[C@H](NC(=O)[C@@H](N)CO)C(=O)N1CCC[C@H]1C(=O)O [SRP] (H-Ser-Arg-Pro-OH) | >800 µM |
| CC(C)[C@H](NC(=O)[C@@H](NC(=O)[C@@H]1CCCN1)[C@@H](C)O)C(=O)O [PTV] (H-Pro-Thr-Val-OH) | >800 µM |
| N[C@@H](CO)C(=O)NCC(=O)N1CCC[C@H]1C(=O)O [SGP] (H-Ser-Gly-Pro-OH) | >800 µM |
| N=C(N)NCCC[C@H](NC(=O)[C@@H]1CCCN1C(=O)[C@@H](N)CCCNC(=N)N)C(=O)O [RPR, arginine-proline-arginine] (H-Arg-Pro-Arg-OH) | 200 µM |
| CC(C)[C@H](NC(=O)CN)C(=O)N1CCC[C@H]1C(=O)NCC(=O)O [GVPG, glycine-valine-proline-glycine] (H-GVPG-OH) | 200 µM |
| N=C(N)NCCC[C@H](NC(=O)[C@@H]1CCCN1)C(=O)NCC(=O)O [PRG] (H-Pro-Arg-Gly-OH) | >800 µM |
| C[C@@H](O)[C@H](NC(=O)[C@@H](N)CCC(N)=O)C(=O)N[C@@H](CCC(N)=O)C(=O)O [QTQ] (H-Gln-Thr-Gln-OH) | >800 µM |
